Laboratory results: patent US10227295B2, “Selective histone deactylase 6 inhibitors” (H. LEE MOFFITT CANCER CENTER AND RESEARCH INSTITUTE, INC., priority 2013, dated 2019)
Values belong to the molecule of their own block, whether it stands above or below them.

What was measured:
[1] = test system: B16 murine melanoma cells; experiment: B16 melanoma cell growth inhibition MTS assay; format: cell-based; settings: for GI50: Mus musculus, B16 murine melanoma cells; for GI50 / growth inhibition of B16 melanoma cells (in words): 48 h, MTS
Protocol: B16 murine melanoma cells were plated at 5×10^3/well in 96 well flat bottom plates. The following day, media was changed to that containing various concentrations of HDACi or matched DMSO vehicle concentrations diluted in complete medium done in triplicate. Cells were incubated for 48 hours at 37° C. and 5% CO2. […] Briefly, 20 μL of reagent were added per well and incubated at 37° C. for 3 hours. […] All values were then normalized and expressed as a percentage of medium control (100%).

[2] = molecular target: human, recombinant full-length HDAC6 (Homo sapiens (Human), UniProt Q9UBN7); experiment: HDAC inhibition assay (Reaction Biology), HDAC6; format: biochemical
STAT3 in APCs = experiment: STAT3 phosphorylation and recruitment to IL-10 gene promotor in APCs; format: cell-based
Text: FIG. 26 is a flow chart depicting the experimental design of the in vitro antigen-presenting studies.
Human MCL cells display an enhanced expression of HDAC6. Disruption of HDAC6 in malignant B-cells inhibits their proliferation and is associated with induction of apoptosis. Pharmacologic or genetic disruption of HDAC6 in MCL cells augment their antigen-presenting capabilities leading to better T-cell activation and restoration of function of anergic Tcells in vitro. […] Disclosed herein is the rationale to use HDAC6 specific inhibitor(s) alone or in combination with STAT3 inhibitors in MCL.

[3] = test system: acetyl-tubulin and acetyl-histone3 in human melanoma cell lines; experiment: Western blot of HDAC substrate acetylation in human melanoma cells; format: cell-based; settings: 24 hrs
Protocol: Error bars represent standard deviation from triplicates. This figure is representative of three independent experiments. (F,G,H) Cell cycle analysis of melanoma WM164, WM983A and WM793 human melanoma cell lines stained with propidium iodide. Data is representative of three experiments with similar results.
To confirm the selectivity of isotype specific HDACi, Western blot analysis was performed on the acetylation status of known HDAC substrates including histone H3 and H4, which are known Class I HDAC targets, and α-tubulin, a target for HDAC6. The doses required to impart the anti-proliferative effect coincided with that needed to increase acetylation of the respective HDAC substrates (FIG. 41F-41H). […] Conversely, HDAC6 selective inhibitors (HDAC6i) increase α-tubulin acetylation but not histone acetylation (FIG. 41F).

[4] = test system: NRAS and BRAF mutant human melanoma cell lines; experiment: Human melanoma cell proliferation MTS assay; format: cell-based; settings: 24 h, panel of human melanoma cell lines
Protocol: Cell proliferation was evaluated using various pan- and isotype selective HDACi in a broad panel of human melanoma cell lines. Briefly, cells were plated at 10×10^3/well in a 96 well flat bottom plate. The following day, media was changed to that containing different concentrations of HDACi or matched DMSO vehicle concentrations diluted in complete medium done in triplicate, all with a final concentration of less than 0.1% DMSO. Cells were incubated for 24 hours at 37° C. and 5% CO2. […] All values were then normalized and expressed as a percentage of medium control growth.

[5] = test system: antigen-specific T-cell responses; experiment: In vivo antigen-specific T-cell response to vaccination; design: species or system mice; settings: in vivo treatment
Text: Tubastatin A-treated macrophages are better activators of […] and restore the responsiveness of anergicT-cells in vitro. […] Mechanistically, Tubastatin-A disrupt […] pathway and tip the balance towards immunogenic rather than tolerogenic macrophages.

B16 melanoma = experiment: In vivo B16 melanoma tumor growth in C57BL/6 mice; settings: 25 mg/kg, intraperitoneal, three times weekly, B16 subcutaneous
[6] = test system: melanoma antigens gp100, MART1, TYRP1 and TYRP2 in human melanoma cell lines; experiment: Tumor antigen expression by qRT-PCR; format: cell-based; settings: 48 hours
Protocol: (D) Expression of tumor antigens was measured in human WM164 non-target and HDAC6KD cells. (E) Expression of tumor antigens mart-1 and gp-100 was measured by western blot.
In addition to direct cytotoxicity, pan-HDACi have immunologic effects on melanoma including modulation of MHC, co-stimulatory molecules, and cytokine production. In both human and murine melanoma cell lines, genetic (FIG. 43A) and pharmacologic (FIG. 43B) disruption of HDAC6 led to increased surface expression of MHC I by flow cytometry.

[7] = test system: IL-10 production in murine peritoneal elicited primary macrophages (PEM); experiment: IL-10 production ELISA, PEM; format: cell-based; settings: 24 hrs
Protocol: (§1) Murine peritoneal elicited primary macrophages (PEM)(A) and murine RAW264.7 (B) cells were incubated with JB7-19, JB7-22, JB720 at the concentration indicated on each chart. After 24 hrs, the production of IL-10 was measured by ELISA.

murine melanoma SM1 = experiment: Cell viability CellTiter 96 Aqueous ONE, SM1; format: cell-based; settings: SM1, 24 hrs, compared to DMSO
Protocol: (§2) Human cutaneous T-cell lymphoma (CTCL) HuT-78 (A), murine mantle cell lymphoma (MCL) (B), and murine melanoma B16 (C) and SM1 (D) cells were incubated with JB7-19, JB7-22, JB720 at different concentrations for 24 hrs. Cell viability was measured using CellTiter 96 Aqueous ONE solution (Promega, Madison, Wis.) and compared to DMSO treated control samples. Error bars represent standard deviation from triplicates.

[8] = test system: murine mantle cell lymphoma (MCL); experiment: Cell viability CellTiter 96 Aqueous ONE, MCL; format: cell-based; settings: 24 hrs, compared to DMSO
Protocol: as §2

murine melanoma B16 = experiment: Cell viability CellTiter 96 Aqueous ONE, B16; format: cell-based; settings: B16, 24 hrs, compared to DMSO
Protocol: as §2

[9] = test system: IL-10 production in murine RAW264.7 cells; experiment: IL-10 production ELISA, RAW264.7; format: cell-based; settings: RAW264.7, 24 hrs
Protocol: as §1

[10] = test system: Human cutaneous T-cell lymphoma (CTCL) HuT-78; experiment: Cell viability CellTiter 96 Aqueous ONE, HuT-78; format: cell-based; settings: HuT-78, 24 hrs, compared to DMSO
Protocol: as §2

[11] = test system: acetyl-α-tubulin and acetyl-H3 in B16 melanoma cells; experiment: Tubulin and histone acetylation Western blot assay; format: cell-based, murine; settings: low nanomolar treatment, 24 h
Protocol: […]. B16 melanoma cells were plated at 10^5 cells/well in 12 well plates and allowed to adhere overnight. A 50 mM stock of compound was then added by serial dilutions in complete medium to the indicated concentrations. Cells were incubated for 24 h under humidified conditions (37° C., 5% CO2). Wells were then washed with cold PBS, and cells were lysed in a buffer containing 10 mM Tris-HCl pH 8.0, 10% SDS, […], 100 mM DTT, and 1× protease inhibitor (Roche). Cells were lysed for 30 min on ice and then sonicated for 8 min (8 cycles of 30 s on/30 s rest). Cells were then boiled for 10 min with 6× gel loading buffer and resolved on 4-15% gradient gels and subsequently transferred onto nitrocellulose membranes. Membranes were blocked with 5% milk in PBS-T and detection of specific antigens using antibodies against acetyl-H3 and H3 (Cell Signaling), and acetyl-α-tubulin and α-tubulin (Sigma). Bands were detected by scanning blots with LI-COR Odyssey imaging system using both 700 and 800 channels.

Chain of human, recombinant full-length HDAC6 (Q9UBN7 whole entry): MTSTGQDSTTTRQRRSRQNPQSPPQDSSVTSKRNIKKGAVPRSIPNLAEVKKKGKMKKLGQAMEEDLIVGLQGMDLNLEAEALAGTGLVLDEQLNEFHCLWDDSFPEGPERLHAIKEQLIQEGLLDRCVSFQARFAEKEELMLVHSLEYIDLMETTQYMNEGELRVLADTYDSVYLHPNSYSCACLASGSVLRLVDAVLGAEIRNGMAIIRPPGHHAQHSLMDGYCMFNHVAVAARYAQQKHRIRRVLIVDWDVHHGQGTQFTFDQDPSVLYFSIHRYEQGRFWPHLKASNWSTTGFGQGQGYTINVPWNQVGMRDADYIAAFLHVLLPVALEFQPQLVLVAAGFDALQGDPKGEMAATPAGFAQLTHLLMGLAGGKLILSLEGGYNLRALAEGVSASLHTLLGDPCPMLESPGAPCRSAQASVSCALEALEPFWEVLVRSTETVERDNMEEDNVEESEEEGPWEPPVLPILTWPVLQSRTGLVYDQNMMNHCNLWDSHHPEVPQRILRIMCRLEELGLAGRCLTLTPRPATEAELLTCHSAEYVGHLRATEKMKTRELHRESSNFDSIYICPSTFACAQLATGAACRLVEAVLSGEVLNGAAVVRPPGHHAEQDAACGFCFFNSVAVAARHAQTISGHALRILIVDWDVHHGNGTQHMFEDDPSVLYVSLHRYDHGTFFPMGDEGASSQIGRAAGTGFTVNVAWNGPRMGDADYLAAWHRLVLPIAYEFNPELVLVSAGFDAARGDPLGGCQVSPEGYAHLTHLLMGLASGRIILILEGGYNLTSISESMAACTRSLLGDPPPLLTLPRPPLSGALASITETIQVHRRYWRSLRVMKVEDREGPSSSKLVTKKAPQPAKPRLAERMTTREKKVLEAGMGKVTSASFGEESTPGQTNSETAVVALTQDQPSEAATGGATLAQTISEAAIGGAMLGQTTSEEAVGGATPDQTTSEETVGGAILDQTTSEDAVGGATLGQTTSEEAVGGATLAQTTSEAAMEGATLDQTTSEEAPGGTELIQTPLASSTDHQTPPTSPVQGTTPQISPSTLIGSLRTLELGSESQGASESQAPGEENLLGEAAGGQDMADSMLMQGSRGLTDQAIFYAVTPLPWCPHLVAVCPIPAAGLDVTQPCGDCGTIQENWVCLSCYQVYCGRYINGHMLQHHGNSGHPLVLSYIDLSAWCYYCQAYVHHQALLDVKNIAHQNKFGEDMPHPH

Molecule: COc1ccccc1NC(=O)N(CCc1c[nH]c2ccccc12)Cc1ccc(C(=O)NO)cc1 [Compound 5c, 4-((1-(2-(1H-indol-3-yl)ethyl)-3-(2-methoxyphenyl)ureido)methyl)-N-hydroxybenzamide]
GI50 [1]: 30.4 ± 1.32 µM

Molecule: CCCCN(Cc1ccc(C(=O)NO)cc1)C(=O)Nc1ncccn1 [JB6-22, 4-((1-butyl-3-(pyrimidin-2-yl)ureido)methyl)-N-hydroxybenzamide]
acetylation of α-tubulin and histone [3]: increase acetyl-tubulin without modifying the acetylation status of Histone 3
IL-10 production [7]: inhibit IL-10 production
cell proliferation / viability (murine melanoma SM1): decrease cell proliferation
cell proliferation / viability [8]: decrease cell proliferation
cell proliferation / viability (murine melanoma B16): decrease cell proliferation
IL-10 production [9]: inhibit IL-10 production
cell proliferation / viability [10]: decrease cell proliferation

Molecule: COc1ccccc1NC(=O)NCc1ccc(C(N)=O)cc1 [Compound 1]
Fold Selective (HDAC1/HDAC6) ([2]; Table 1A): 2

Molecule: CCCCN(Cc1ccc(C(=O)NO)cc1)C(=O)Nc1ccccc1 [Compound 5g, 4-((1-butyl-3-phenylureido)methyl)-N-hydroxybenzamide]
acetylation of α-tubulin and histone [3]: increase acetyl-tubulin without modifying the acetylation status of Histone 3
acetyl α-tubulin levels [11]: dose-dependant increase
histone H3 acetylation ([11]; increase only at 1 and 10 μM): without a concamanent elevation
less potent than LBH589 in inducing murine B16 melanoma cell death [1]: approximately 100 fold
growth inhibition of B16 melanoma cells (in words) [1]: capable of inhibiting the growth
tumor growth (B16 melanoma): delayed tumor growth
melanoma antigen expression at the mRNA level [6]: upregulation of melanoma antigens gp100, MART1, TYRP1 and TYRP2

Molecule: COCCCN(Cc1ccc(C(=O)NO)cc1)C(=O)Nc1ccccc1 [Compound 5e, N-hydroxy-4-((1-(3-methoxypropyl)-3-phenylureido)methyl)benzamide]
GI50 [1]: 22.2 ± 1.41 µM

Molecule: Trichostatin A [TSA]
concentration range inhibiting proliferation (in words) [4]: low 100 nM range

Molecule: COc1ccccc1NC(=O)N(CCCN(C)C)Cc1ccc(C(=O)NO)cc1 [Compound 5a, 4-((1-(3-(dimethylamino)propyl)-3-(2-methoxyphenyl)ureido)methyl)-N-hydroxybenzamide]
GI50 [1]: 75.3 ± 1.23 µM

Molecule: COc1ccccc1NC(=O)N(CCCO)Cc1ccc(C(=O)NO)cc1 [Compound 5b]
growth inhibition of B16 melanoma cells (in words) [1]: performed very poorly
GI50 [1]: > 100 µM

Molecule: COc1ccccc1NC(=O)N(CCc1ccc(O)cc1)Cc1ccc(C(=O)NO)cc1 [Compound 5d, N-hydroxy-4-((1-(4-hydroxyphenethyl)-3-(2-methoxyphenyl)ureido)methyl)-benzamide]
GI50 [1]: 18.4 ± 1.23 µM

Molecule: CCCCN(Cc1ccc(C(=O)NO)cc1)C(=O)Nc1ccc2cn[nH]c2c1 [JB7-19, 4-((1-butyl-3-(1H-indazol-6-yl)ureido)methyl)-N-hydroxybenzamide]
acetylation of α-tubulin and histone [3]: increase acetyl-tubulin without modifying the acetylation status of Histone 3
IL-10 production [7]: inhibit IL-10 production
cell proliferation / viability (murine melanoma SM1): decrease cell proliferation
cell proliferation / viability [8]: decrease cell proliferation
cell proliferation / viability (murine melanoma B16): decrease cell proliferation
IL-10 production [9]: inhibit IL-10 production
cell proliferation / viability [10]: decrease cell proliferation

The next lines start with results.

Fold Selective (HDAC1/HDAC6) ([2]; Table 2, cyclic urea compounds): 386
Molecule: COc1ccccc1N1C(=O)N(Cc2ccc(C(=O)NO)cc2)C(C)(C)C1=O [Compound 10a]

GI50 [1]: 40.5 ± 1.21 µM
Molecule: CN1CCc2c(c3ccccc3n2Cc2ccc(C(=O)NO)cc2)C1 [Tubastatin A, reference compound]
STAT3 phosphorylation and recruitment to the IL-10 gene promotor (STAT3 in APCs): decreased STAT3 phosphorylation and recruitment to the IL-10 gene promotor
acetylation of α-tubulin and histone [3]: increase acetyl-tubulin without modifying the acetylation status of Histone 3
concentration range inhibiting proliferation (in words) [4]: low micromolar range
antigen-specific T-cell responses to vaccination [5]: enhances antigen-specific T-cell responses to vaccination
tumor growth (B16 melanoma): delayed tumor growth
melanoma antigen expression at the mRNA level [6]: upregulation of melanoma antigens gp100, MART1, TYRP1 and TYRP2

GI50 [1]: > 100 µM
Molecule: CCN(C(=O)NCc1ccc(C(=O)NO)cc1)c1ccccc1 [Compound 8c, 4-((3-ethyl-3-phenylureido)methyl)-N-hydroxybenzamide]

Fold Selective (HDAC1/HDAC6) ([2]; Table 2, cyclic urea compounds): 531
Molecule: CC(C)[C@@H]1C(=O)N(c2ccccc2)C(=O)N1Cc1ccc(C(=O)NO)cc1 [Compound 10b]

Fold Selective (HDAC1/HDAC6) ([2]; Table 2, cyclic urea compounds): 295
Molecule: O=C(NO)c1ccc(CN2C(=O)N[C@@H](Cc3ccccc3)C2=O)cc1 [Compound 11a]

GI50 [1]: 15.4 ± 1.2 µM
Molecule: O=C(NO)c1ccc(CN(CCc2ccccc2)C(=O)Nc2ccccc2)cc1 [Compound 5h, N-hydroxy-4-((1-phenethyl-3-phenylureido)methyl)benzamide]
growth inhibition of B16 melanoma cells (in words) [1]: capable of inhibiting the growth

GI50 [1]: > 100 µM
Molecule: COCCCN(C(=O)NCc1ccc(C(=O)NO)cc1)c1ccccc1 [Compound 8b, N-hydroxy-4-((3-(3-methoxypropyl)-3-phenylureido)methyl)benzamide]

GI50 [1]: 0.15 µM
IC50 ([4]; read-out: IC50 range, inhibition of proliferation): 10 to 50 nM
Molecule: Cc1[nH]c2ccccc2c1CCNCc1ccc(/C=C/C(=O)NO)cc1 [LBH589, reference compound]

GI50 [1]: 65.8 ± 1.19 µM
Molecule: CCCCN(C(=O)NCc1ccc(C(=O)NO)cc1)c1ccccc1 [Compound 8a, 4-((3-butyl-3-phenylureido)methyl)-N-hydroxybenzamide]
